This note sets out measurements from article PMC8398878, “Synthesis, Physicochemical Characterization, In Vitro 2D/3D Human Cell Culture, and In Vitro Aerosol Dispersion Performance of Advanced Spray Dried and Co-Spray Dried Angiotensin (1—7) Peptide and PNA5 with Trehalose as Microparticles/Nanoparticles for Targeted Respiratory Delivery as Dry Powder …” (Pharmaceutics, 2021).

Each structure is given as a SMILES string. Values after ≈ are worked out from the molar mass of the structure shown. Read-outs that look alike come from different tables or passages of the source. Peptide text beside a SMILES is read from it. * marks the point of attachment. βGlc = OC[C@H]1O[C@@H](*)[C@H](O)[C@@H](O)[C@@H]1O

A short description of data set [1]: Solubility by shake-flask method (SFM) with HPLC. It is filed as physicochemical. On the procedure: The solubilities of Ang (1—7) and PNA5 were determined by the SFM using conditions similar to previously reported by our group and in [39, 40, 41, 42]. Each compound’s excess powder was added to a specific volume of different solvents (purified water, phosphate buffered saline (PBS), normal saline (NS), methanol, and ethanol) in closed, light-protected glass vials. The solutions containing excess solid of Ang (1—7) and PNA5 were then capped and agitated at room temperature (25 °C) using a shaker. More powder was added to the vial if the dissolution was complete. The pH value of Ang (1—7) and PNA5 suspensions were adjusted to pH 6.5 (pseudo-isoelectric point calculated by MOE software) to determine the zwitterionic species’ solubilities and ensure the predominant presence of the unionized form of Ang (1—7) and PNA5. The separation of the saturated solution and the precipitate was performed by sedimentation. Aliquots of supernatants were withdrawn from all saturated solutions, diluted with each corresponding solvent, and injected into analytical HPLC. Each compound in each aliquot was measured against a calibration curve using the previously developed analytical HPLC method in our lab. Each compound’s solubility experiments in all solvents were repeated three times (n = 3, mean ± standard deviation).
The HPLC system is LC-2010HT next-generation HPLC (SHIMADZU Tokyo, Japan), and it is the same as previously used in [24]. This system consists of a degassing unit, low-pressure gradient unit, pump unit, mixer, ultra-fast autosampler, column oven, and a UV-VIS detector with a thermostatted flow cell system. The analysis was performed by a reverse phase HPLC assay, using Phenomenex Prodigy 5 um ODS (3) 250 × 4.6 mm HPLC Column. Ultraviolet detection was done at 280 nm. Mobile phase condition was a gradient of acetonitrile in water with 0.1% trifluoroacetic acid at two different percentages pumped from two pumps. The flow was 1 mL/min, the injection volume was 20 μL; the retention time for Ang (1—7) was ~7.7 min and for PNA5 was ~6.7 min. Quantification for both compounds was determined using peak area and calculated from freshly prepared standard curves.

The subject of data set [2] is RPMI 2650 nasal epithelium cells. The data set can be described thus: In vitro 2D cell viability, resazurin assay. As to conditions: for safe (non-toxic) concentration: nasal epithelium cells (RPMI2650).
Procedure: (§1) In vitro human cell viability assays were performed to measure the biocompatibility and safety of Ang (1—7) and PNA5 on nasal epithelium RPMI 2650 cells, hCMEC/D3 blood–brain barrier endothelial cells, NHA, A549, and H441 lung cells using resazurin as a marker.
(§2) Human nasal epithelial cells (RPMI 2650) with passage numbers between 9 and 13 were used for the experiments. Eagle’s Minimum Essential Medium (EMEM) (ATCC® 30-2003™) supplemented with 10% (v/v) fetal bovine serum (FBS), 1% (v/v) Pen-Strep (100 Unit/mL penicillin, 100 μg/mL streptomycin), 0.2% (v/v) and fungizone (0.5 μg/mL amphotericin) was used to grow cells in a humidified incubator at 37 °C and 5% CO2. Normal Human Astrocytes (NHA) at passages 1 and 3 were used for the experiments. A supplements kit for a complete growth medium AGM™ SingleQuots™ (Lonza, CC-4123) was added to the growth medium of Astrocyte basal medium ABM™ (Lonza, CC-3187).
(§3) For passage, all the cell types were detached when confluence reached about 80% by treating the cells with trypsin-EDTA at 37 °C. The effects of Ang (1—7) and PNA5 on cell proliferation were analyzed by measuring all of the above cell line responses to different concentrations of Ang (1—7) and PNA5 separately. The cells were seeded in 96-well black plates at a specific density and were kept to attach for 48 h. Then, the media containing compounds were removed from each well and replaced by 100 μL of media containing 20 μM resazurin sodium salt (was dissolved in un-supplemental media) and incubated for 4 h at 37 °C and 5% CO2. The fluorescence intensity of the metabolite (resorufin) produced by the viable cells was measured at 544 nm (the excitation) and 590 nm (the emission) using the Synergy H1 Multi-Mode Reader (BioTek Instruments Inc., Winooski, VT, USA). The relative cell viability of the cell line was calculated using Equation (6):(6) Relative viability %=Sample fluorescence intensity/Control fluorescence intensity×100%
The test system of data set [3] is Normal Human Astrocytes (NHA). The data set can be described thus: In vitro 2D cell viability, resazurin assay. Conditions: for safe (non-toxic) concentration: astrocyte brain cells (NHA). (Alamar Blue is a resazurin reagent that responds to reducing activity.)
Procedure: as §1, §2, §3
The test system of data set [4] is hCMEC/D3 blood–brain barrier endothelial cells. The data set can be described thus: In vitro 2D cell viability, resazurin assay. Conditions: for safe (non-toxic) concentration: endothelial brain cells (hCMEC/D3).
Procedure: as §1
The immortalized human cerebral microvascular endothelial (hCMEC/D3) at passages 29 and 31 were seeded on collagen-coated culture flasks. Cells were grown in EndoGRO™-MV Complete Media Kit (cat. no. SCME004) supplemented with one ng/mL FGF-2 (cat. no. GF003) and kept in a humidified incubator at 37 °C and 5% CO2.
as §3
In data set [5] the test system is A549 lung epithelial cells. The data set is described as follows: In vitro 2D cell viability, resazurin assay. Conditions: for safe (non-toxic) concentration: epithelium lung cells (A549).
Procedure: as §1
(§4) A549 adenocarcinoma human alveolar basal epithelial cells (ATCC® CCL-185™) and H441 lung adenocarcinoma cells (ATCC®HTB174™) were used at passages 9 and 8, respectively, for the experiments. Both cell types were grown in a growth in RPMI Medium 1640 (1X) (Gibco, 11875-093, 500 mL) supplemented with 10% v/v fetal bovine serum (FBS), 0.2% v/v fungizone (0.5 μg/mL amphotericin), 1% v/v Pen-Strep (100 Unit/mL penicillin, 100 μg/mL streptomycin). The cells were kept in a humidified incubator at 37 °C and 5% CO2.
as §3
Data set [6] deals with H441 lung epithelial cells. The data set is described as follows: In vitro 2D cell viability, resazurin assay. As to conditions: for safe (non-toxic) concentration: epithelium lung cells (H441).
Procedure: as §1, §4, §3
The nature of data set [7]: Karl Fisher coulometric titration, residual water content. It is filed as physicochemical. As to conditions: n = 3. On the procedure:
All powders’ residual water content was quantified by KFT coulometrically using conditions similar to previously reported. A TitroLine® 7500 trace titrator (SI Analytics, Mainz, Germany) was used. A mass of 1–2 mg of powder sample was dissolved in 0.5 mL AQUA STAR anhydrous methanol and injected the sample solution into a reaction cell filled with Hydranal® Coulomat AD reagent. Then obtain the water content of the sample a simple calculation. All experiments were done in triplicate (n = 3).

On to `CC[C@H](C)[C@H](NC(=O)[C@H](Cc1ccc(O)cc1)NC(=O)[C@@H](NC(=O)[C@H](CCCNC(=N)N)NC(=O)[C@@H](N)CC(=O)O)C(C)C)C(=O)N[C@@H](Cc1c[nH]cn1)C(=O)N1CCC[C@H]1C(=O)O` [Ang (1—7), Asp-Arg-Val-Tyr-Ile-His-Pro], for which the “Solubility Category According to USP Definition” value in data set [1] (Ethanol) was “Very slightly soluble (VSS)”; in data set [1] (Methanol) it was “Slightly soluble (SS)”; in data set [1] (PBS), “Freely Soluble (FS)”. Moreover, the solubility in data set [1] (Ethanol, 25 °C, n = 3, read-out: Solubility) is 0.16 ± 0.001 mg/mL; in data set [1] (Ethanol, footnote: S in mMole unit, read-out: LogS (experimental) (converted)), 0.178 mM; in data set [1] (H2O, footnote: S in mMole unit, read-out: LogS (experimental) (converted)), 195 mM; in data set [1] (H2O, read-out: Solubility Category According to USP Definition), 100 to 1000 mg/mL; in data set [1] (Methanol, 25 °C, n = 3, read-out: Solubility) it was 1 ± 0.005 mg/mL; in data set [1] (Methanol, footnote: S in mMole unit, read-out: LogS (experimental) (converted)) it was 1.12 mM. Further, the solubility in data set [1] (NS, footnote: S in mMole unit, read-out: LogS (experimental) (converted)) was 155 mM; in data set [1] (NS, read-out: Solubility Category According to USP Definition), 100 to 1000 mg/mL; in data set [1] (PBS, footnote: S in mMole unit, read-out: LogS (experimental) (converted)), 186 mM; in data set [1] (pH 6.5, H2O, pH 6.5, 25 °C, n = 3, read-out: Solubility), 174 ± 0.19 mg/mL; in data set [1] (pH 6.5, NS (normal saline), pH 6.5, 25 °C, n = 3, read-out: Solubility), 140.4 ± 0.32 mg/mL; in data set [1] (pH 6.5, PBS, pH 6.5, 25 °C, n = 3, read-out: Solubility) it was 165.4 ± 0.34 mg/mL. The “safe (non-toxic) concentration” value in data set [2], in data set [3], in data set [4], in data set [5] and in data set [6] was “up to 1000 μg/mL” in each case.

Regarding `CC[C@H](C)[C@H](NC(=O)[C@H](Cc1ccc(O)cc1)NC(=O)[C@@H](NC(=O)[C@H](CCCNC(=N)N)NC(=O)[C@@H](N)CC(=O)O)C(C)C)C(=O)N[C@@H](Cc1c[nH]cn1)C(=O)N[C@@H](CO[C@@H]1O[C@H](CO)[C@@H](O)[C@H](O)[C@H]1O)C(N)=O` [PNA5, Asp-Arg-Val-Tyr-Ile-His-Ser-(O-β-D-Glc)-amide] (H-DRVYIHS(βGlc)-NH2), the “Solubility Category According to USP Definition” value in data set [1] (Ethanol) and in data set [1] (Methanol) was “Very slightly soluble (VSS)” each time. Moreover, the solubility (thermodynamic) in data set [1] (NS (normal saline), pH 6.5, 25 °C, n = 3) is 269.3 ± 1.53 mg/mL (≈ 256 mM); in data set [1] (phosphate buffered saline (PBS), PBS, pH 6.5, 25 °C, n = 3), 305.05 ± 0.22 mg/mL (≈ 290 mM); in data set [1] (purified water, H2O, pH 6.5, 25 °C, n = 3) it was 275.3 ± 2.31 mg/mL (≈ 262 mM). Moreover, the solubility in data set [1] (ethanol, 25 °C, n = 3, read-out: Solubility) is 0.12 ± 0.003 mg/mL; in data set [1] (ethanol, footnote: S in mMole unit, read-out: LogS (experimental) (converted)), 0.115 mM; in data set [1] (methanol, 25 °C, n = 3, read-out: Solubility), 0.34 ± 0.01 mg/mL; in data set [1] (methanol, footnote: S in mMole unit, read-out: LogS (experimental) (converted)), 0.331 mM; in data set [1] (normal saline (NS), pH 6.5, NS, footnote: S in mMole unit, read-out: LogS (experimental) (converted)) it was 257 mM; in data set [1] (normal saline (NS), pH 6.5, NS, read-out: Solubility Category According to USP Definition), 100 to 1000 mg/mL. The solubility was 288 mM in data set [1] (phosphate buffered saline (PBS), pH 6.5, PBS, footnote: S in mMole unit, read-out: LogS (experimental) (converted)); 100 to 1000 mg/mL in data set [1] (phosphate buffered saline (PBS), pH 6.5, PBS, read-out: Solubility Category According to USP Definition); 263 mM in data set [1] (purified water, pH 6.5, H2O, footnote: S in mMole unit, read-out: LogS (experimental) (converted)); 100 to 1000 mg/mL in data set [1] (purified water, pH 6.5, H2O, read-out: Solubility Category According to USP Definition). For the same compound, the “relative cell viability% vs control cells” value is listed as “no statistically significant difference” in data set [2] (RPMI2650, 0.1, 1, 10 and 1000 µg/mL, p > 0.05, n = 6); “no statistically significant difference” in data set [3] (NHA, 0.1, 1, 10 and 1000 µg/mL, p > 0.05, n = 6); “no statistically significant difference” in data set [4] (hCMEC/D3, 0.1, 1, 10 and 1000 µg/mL, p > 0.05, n = 6); “no statistically significant difference” in data set [5] (A549, 0.1, 1, 10 and 1000 µg/mL, p > 0.05, n = 6); “no statistically significant difference” in data set [6] (H441, 0.1, 1, 10 and 1000 µg/mL, p > 0.05, n = 6). Besides, the “safe (non-toxic) concentration” value in data set [2], in data set [3], in data set [4], in data set [5] and in data set [6] was “up to 1000 μg/mL” in each case.

For the compound `OC[C@H]1O[C@H](O[C@H]2O[C@H](CO)[C@@H](O)[C@H](O)[C@H]2O)[C@H](O)[C@@H](O)[C@@H]1O` [Raw Trehalose, D (+)-Trehalose dihydrate], in data set [7], the “Water % (w/w)” value is 8.55 ± 1.50 % (w/w).

One may read the thermodynamic solubility as the concentration in solution at equilibrium with solid.
